Test results as given in US9440951B2, “Quinolone compound” (priority 2011, dated 2016).
Converted amounts (≈) assume the structure as drawn. Like-named read-outs stand apart in the source and are kept apart here.

How the values were obtained:
[1] = system: C. difficile; test: In vitro antibacterial activity: MIC by broth microdilution; assay type: cell-based, Clostridium difficile; settings: Clostridioides difficile, anaerobic, tested range 0.008 to 8 μg/ml
Protocol: MICs (minimum inhibitory concentrations) were determined by the broth microdilution technique with 96-well microdilution plates. […] The plates were filled with 100 μl of reinforced clostridial medium (Oxoid; Unipath Ltd., Basingstoke, United Kingdom) per well containing the final antibiotic concentrations. The plates were thawed and preincubated for 3 hours in an anaerobic chamber (Thermal, USA) containing an atmosphere of 80% N2, 15% CO2, and 5% H2. The bacterial inocula were prepared by suspending growth from 48 hours cultures in reinforced clostridial medium. The final inoculum was approximately 1.0×10^5-6 CFU/well. The plates were incubated for 48 hours at 37° C. in the anaerobic chamber. The MIC was defined as the lowest antibiotic concentration that inhibited visible growth. Ciprofloxacin, vancomycin and metronidazole were used as a positive control.

[2] = strain C. difficile ATCC43255, 48 hours at 37° C., read-out: MIC against C. difficile ATCC43255
[3] = strain C. difficile ATCC70092, 48 hours at 37° C., read-out: MIC against C. difficile ATCC70092
[4] = strain C. difficile ATCC7000057, 48 hours at 37° C., read-out: MIC against C. difficile ATCC7000057
[5] = strain C. difficile IQCC23903, 48 hours at 37° C., read-out: MIC against C. difficile IQCC23903

Structure (SMILES) | melting point [°C] | MIC [1, 2] [mg/L] | MIC [1, 3] [mg/L] | MIC [1, 4] [mg/L] | MIC [1, 5] [mg/L]
Cc1c(-c2cnc3[nH]c(=O)ccc3c2)c(F)cc2c(=O)c(C(=O)O)cn(C3CC3)c12 [Compound 1-2] | > 300 | 0.032 to 0.125 (≈ 0.0789 to 0.308 µM) | 0.032 to 0.125 (≈ 0.0789 to 0.308 µM) | 0.032 to 0.125 (≈ 0.0789 to 0.308 µM) | 0.063 to 0.25 (≈ 0.155 to 0.617 µM)
Cc1c(-c2cnc(N)c(C#N)c2)c(F)cc2c(=O)c(C(=O)O)cn(C3CC3)c12 [Compound 2-18] |  | 0.016 to 0.063 (≈ 0.0423 to 0.167 µM) | 0.008 to 0.063 (≈ 0.0211 to 0.167 µM) | 0.016 to 0.063 (≈ 0.0423 to 0.167 µM) | 0.032 to 0.063 (≈ 0.0846 to 0.167 µM)
Cc1c(-c2cc(Cl)c3nccn3c2)c(F)cc2c(=O)c(C(=O)O)cn(C3CC3)c12 [Compound 3-11] | 307 to 311 | 0.008 to 0.032 (≈ 0.0194 to 0.0777 µM) | 0.008 to 0.032 (≈ 0.0194 to 0.0777 µM) | 0.016 to 0.032 (≈ 0.0389 to 0.0777 µM) | 0.008 to 0.063 (≈ 0.0194 to 0.153 µM)
